From ChEMBL document CHEMBL1134872, “Isothiazole dioxides: synthesis and inhibition of Trypanosoma brucei protein farnesyltransferase” (2002) come the findings set out here.

In general, inhibition refers to how much of the control response was suppressed.

Assay [1] addresses T1, Protein farnesyltransferase (Rattus norvegicus) (UniProt Q04631+Q02293). Briefly: Percentage in vitro inhibition of rat protein farnesyltransferase at 100 uM. Type of assay: protein-complex assay.
In assay [2] the target is T2, geranylgeranyltransferase type-I (Rattus norvegicus) (UniProt P53610+Q04631). Briefly: Percentage in vitro inhibition of rat protein geranylgeranyltransferase type-I at 100 uM. It counts as protein-complex assay.
Assay [3] concerns Protein farnesyltransferase (Trypanosoma brucei). The assay can be described thus: Percentage in vitro inhibition of recombinant Trypanosoma brucei protein farnesyltransferase at 100 uM.
Assay [4] has as its target T1, Protein farnesyltransferase (Rattus norvegicus). Briefly: Percentage in vitro inhibition of rat protein farnesyltransferase at 50 uM. Type of assay: protein-complex assay.
In assay [5] the target is T2, geranylgeranyltransferase type-I (Rattus norvegicus). Briefly: Percentage in vitro inhibition of rat protein geranylgeranyltransferase type-I at 50 uM. It counts as protein-complex assay.
Assay [6] relates to Protein farnesyltransferase (Trypanosoma brucei). Briefly: Percentage in vitro inhibition of recombinant Trypanosoma brucei protein farnesyltransferase at 2 uM.
The target in assay [7] is T1, Protein farnesyltransferase (Rattus norvegicus). Briefly: Percentage in vitro inhibition of rat protein farnesyltransferase at 5 uM. Type of assay: protein-complex assay.
The target of assay [8] is T2, geranylgeranyltransferase type-I (Rattus norvegicus). Briefly: Percentage in vitro inhibition of rat protein geranylgeranyltransferase type-I at 5 uM. Type of assay: protein-complex assay.
Another assay deals with Trypanosoma brucei. The assay can be described thus: In vitro dose required to inhibit growth of Trypanosoma brucei. It counts as functional. To be noted: read-out: ED50 (the source's name).
Assay [9] relates to Protein farnesyltransferase (Trypanosoma brucei). The assay can be described thus: Percentage in vitro inhibition of recombinant Trypanosoma brucei protein farnesyltransferase at 5 uM.
Assay [10] addresses T1, Protein farnesyltransferase (Rattus norvegicus). The assay can be described thus: Percentage in vitro inhibition of rat protein farnesyltransferase at 2 uM. Type of assay: protein-complex assay.
Assay [11] concerns the target T2, geranylgeranyltransferase type-I (Rattus norvegicus). Briefly: Percentage in vitro inhibition of rat protein geranylgeranyltransferase type-I at 2 uM. Type of assay: protein-complex assay.

Each structure is given as a SMILES string.

With `CCN(CC)C1=NS(=O)(=O)C(SC)=C1c1ccc(OC)cc1`, the inhibition in assay [1] was 5%; in assay [2] it was 36%; in [3], 7%.
In the case of `CCN(CC)C1=NS(=O)(=O)C(C2CC(c3c(Cl)cccc3Cl)=NO2)=C1c1ccc(OC)cc1` (stereo unspecified), the figures for the inhibition in [4], in [5] and in assay [6] were 14%, 45% and 32%, respectively.
For the compound `CCN(CC)C1=NS(=O)(=O)C(C2CC(c3c(C)c(C)c(C)c(C)c3C)=NO2)=C1c1ccc(OC)cc1` (stereo unspecified), the inhibition was found to be 7% in assay [4] and 13% in assay [6].
With `CCN(CC)C1=NS(=O)(=O)C(C2CC(c3c(C)cccc3C)=NO2)=C1c1ccc(OC)cc1` (stereo unspecified), the inhibition amounted to 22% in assay [4], 17% in [5] and 8% in [6].
`CCN(CC)C1=NS(=O)(=O)C(C)=C1c1ccc(OC)cc1`: the inhibition in [1] was found to be 27%; in assay [2], 56%; in assay [3], 43%.
Regarding `CCN(CC)C1=NS(=O)(=O)C(c2cn(S(=O)(=O)c3ccccc3)c3ccccc23)=C1c1ccc(OC)cc1`, the inhibition in assay [1] came to 5%; in assay [2] it was 25%; in assay [3] it was 29%.
Take `CCN(CC)C1=NS(=O)(=O)C(C2CC(c3ccc(OC)cc3)=NO2)=C1c1ccc(OC)cc1` (stereo unspecified): the inhibition in assay [4] turned out to be 13%; in assay [5], 17%; in assay [6], 8%.
Turning to `CCN(CC)C1=NS(=O)(=O)C(Sc2ccccc2)=C1c1ccc(OC)cc1`, the values for the inhibition in assay [1], in assay [2] and in [3] were 5%, 17% and 62%, respectively.
`CCOC1C(c2c(C)cc(C)cc2C)=NOC1C1=C(c2ccc(OC)cc2)C(N(CC)CC)=NS1(=O)=O` (stereo unspecified): the inhibition was 9% in assay [4], 12% in assay [5] and 10% in assay [6].
For `CCN(CC)C1=NS(=O)(=O)C(C2CC(c3c(C)cc(C)cc3C)=NO2)=C1c1ccc(OC)cc1` (stereo unspecified), the inhibition is 21% in [4]; 0% in assay [7]; 25% in assay [5]; 15% in assay [8]; 50% in assay [6]; 66% in assay [9]. Moreover, the EC50 in the assay on Trypanosoma brucei was determined as 10 µM.
Turning to `CCN(CC)C1=NS(=O)(=O)C(c2ccccn2)=C1c1ccc(OC)cc1`, the results for the inhibition in assay [1], in assay [2] and in [3] were 3%, 7% and 12%, respectively.
On to `CCN(CC)C1=NS(=O)(=O)C(C2CC(c3c(C)c(Cl)c(C)c(Cl)c3C)=NO2)=C1c1ccc(OC)cc1` (stereo unspecified), for which the values for the inhibition in assay [4], in assay [5] and in assay [6] were 2%, 7% and 28%, respectively.
Take `CCN(CC)C1=NS(=O)(=O)C(c2ccccc2)=C1c1ccc(OC)cc1`: the results for the inhibition in assay [1], in [2] and in assay [3] were 0%, 26% and 13%, respectively.
Turning to `CCN(CC)C1=NS(=O)(=O)C=C1c1ccc(OC)cc1`, the results for the inhibition in [7], in assay [8] and in assay [9] were 0%, 12% and 0%, respectively.
Regarding `CCN(CC)C1=NS(=O)(=O)C(C2CC(c3ccc([N+](=O)[O-])cc3)=NO2)=C1c1ccc(OC)cc1` (stereo unspecified), the inhibition in assay [4] stood at 18%; in assay [5], 8%; in assay [6], 2%.
Turning to `CCN(CC)C1=NS(=O)(=O)C(SC2CCCCC2)=C1c1ccc(OC)cc1`, the inhibition in [1] came out at 6%; in [2], 20%; in [3], 52%.
`CCN(CC)C1=NS(=O)(=O)C(SC/C=C(\C)CC/C=C(/C)CCC=C(C)C)=C1c1ccc(OC)cc1`: the inhibition in assay [1] turned out to be 0%; in assay [2], 28%; in assay [3], 25%.
On to `CCN(CC)C1=NS(=O)(=O)C(c2cc(-c3c(C)cc(C)cc3C)no2)=C1c1ccc(OC)cc1`, for which the inhibition in assay [4] was 8%; in assay [5] it was 11%; in assay [6], 0%.
Regarding `CCN(CC)C1=NS(=O)(=O)C(C2CC(c3ccccc3C)=NO2)=C1c1ccc(OC)cc1` (stereo unspecified), the results for the inhibition in assay [4], in [5] and in [6] were 22%, 0% and 2%, respectively.
For `CCN(CC)C1=NS(=O)(=O)C(C#Cc2ccccc2)=C1c1ccc(OC)cc1`, the values for the inhibition in [10], in assay [11] and in assay [6] were 2%, 7% and 0%, respectively.
Take `CCN(CC)C1=NS(=O)(=O)C(C2CC(c3ccc(Cl)cc3)=NO2)=C1c1ccc(OC)cc1` (stereo unspecified): the inhibition was determined as 8% in [4], 20% in assay [5] and 0% in assay [6].
